Experimental data from patent US20090209474A1, “NOVEL USES FOR DRUGS TARGETING GLUTAMINE SYNTHETASE” (NEWTHERA, priority 2005, published 2009).

Tests used:
[1] = biological target: GS (mung bean); details: cited from earlier work
[2] = biological target: T1, purified pig brain GS (Sus scrofa, UniProt P46410); test: Interaction of NF and purified pig GS (agarose diffusion, precipitation, spot blot, western blot); format: binding
T1 construct: Fifty microlitre of purified pig brain GS (3 mg/ml) was added to one peripheral well; from tissue; host or cells: pig brain (purified enzyme)
T1 sequence (P46410 2-373 limits assumed): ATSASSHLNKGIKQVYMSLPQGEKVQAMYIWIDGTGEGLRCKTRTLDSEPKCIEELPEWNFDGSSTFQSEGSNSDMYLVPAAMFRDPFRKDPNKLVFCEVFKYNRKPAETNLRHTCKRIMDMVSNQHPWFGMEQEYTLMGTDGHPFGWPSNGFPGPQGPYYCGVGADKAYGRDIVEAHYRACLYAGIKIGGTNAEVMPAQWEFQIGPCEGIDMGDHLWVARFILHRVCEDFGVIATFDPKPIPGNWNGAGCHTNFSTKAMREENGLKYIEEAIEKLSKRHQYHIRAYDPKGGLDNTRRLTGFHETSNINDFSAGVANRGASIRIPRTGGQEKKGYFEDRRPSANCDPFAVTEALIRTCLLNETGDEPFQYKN
Protocol: Five ml of agarose 0.1% were let to polymerise in a Petri dish. Five wells with equal volume and distance from each other, 1 central and 4 peripherals, were made on it using a 300 μl tip. The central well was filed with 50 μl of NF solution ([…]). Fifty microlitre of purified pig brain GS (3 mg/ml) was added to one peripheral well. In two other wells either 50 μl of TBS or FCS was added. The gel was humidified and left at 37° C. for 48 h.
The final concentration of methanol per assay tube was 10% V/V. Fixed (3 mg/ml) or variable (0.023 to 3 mg/ml) concentrations of either purified brain pig GS or rat brain homogenates were added to each assay tube. The tubes were incubated a room temperature for 5 min. Methanol (10%) and FCS were used as negative controls. The tubes were thereafter centrifuged at 700 g. Supernatant was discarded and the pellets were suspended in 100 μl working buffer and incubated for 15 min at 37° C. The reaction was finally stopped and absorbance was measured as described above.
Twenty μl of agarose gel with precipitated NF/protein complexes issued from diffusion study was applied to methanol activated PVDF membrane. Non-specific binding sites were blocked by 5% low fat skimmed milk in TBS buffer, supplemented with 0.1% tween 20. Transferred proteins were allowed to react with either polyclonal rabbit anti-GS (1/3000) or anti-GR (1/3000) antibodies for 30 min at room temperature. After one quick wash with TBS, 0.1% tween 20, horseradish peroxidase conjugated goat anti-rabbit antibody was subjected (1/5000) to the transferred proteins for 30 min at room temperature.
Twenty μl per well of precipitated NF/protein complex were separated on 8% SDS-PAGE gel in absence or presence of 2β-mercaptoethanol. The proteins separated in presence or the absence of SDS were thereafter transferred to a nitrocellulose membrane ([…]). Non-specific binding sites were blocked by 5% low fat skimmed milk in TBS buffer, supplemented with 0.1% tween 20. Transferred proteins were thereafter allowed to react with either polyclonal rabbit anti-GS (1/3000) or anti-GR (1/3000) antibodies for 30 min at room temperature. After one quick wash with TBS, 0.1% tween 20, horseradish peroxidase conjugated goat anti-rabbit antibody was subjected (1/5000) to the transferred proteins for 30 min at room temperature.

[3] = biological target: T2, glutamine synthetase (Rattus norvegicus, UniProt P09606); test: Proteins precipitated by NF from rat brain homogenate (mass spectrometry); format: binding; details: 8% gel, native conditions
T2 construct: Wistar rat brain homogenates were incubated with naftazone; from tissue; host or cells: Wistar rat brain homogenate or membranes; in A19 also liver and lungs
T2 sequence (P09606 2-373 limits assumed): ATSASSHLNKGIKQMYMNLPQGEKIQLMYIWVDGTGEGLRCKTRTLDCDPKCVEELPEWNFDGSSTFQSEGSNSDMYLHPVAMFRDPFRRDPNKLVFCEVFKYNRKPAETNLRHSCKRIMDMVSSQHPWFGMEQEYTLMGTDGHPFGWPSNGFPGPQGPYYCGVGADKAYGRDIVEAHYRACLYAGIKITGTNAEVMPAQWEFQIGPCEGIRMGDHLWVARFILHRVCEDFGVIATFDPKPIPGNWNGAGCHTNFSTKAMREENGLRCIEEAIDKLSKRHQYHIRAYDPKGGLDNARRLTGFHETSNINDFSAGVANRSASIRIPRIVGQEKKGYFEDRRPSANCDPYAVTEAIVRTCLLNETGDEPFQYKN

[4] = biological target: T3, Wistar rat brain GS (Rattus norvegicus, UniProt P09606); test: GS activity in Wistar rat brain homogenates; format: biochemical; details: in absence of 2β-ME
T3 construct: from tissue; host or cells: Wistar rat brain homogenate or membranes; in A19 also liver and lungs
T3 sequence (P09606 2-373 limits assumed): as above
Protocol: GS activity was assessed as mentioned above for purified sheep brain GS.

[5] = Adrenal weight of rats administered methylprednisolone; format: in vivo, Wistar rats
Protocol: Wistar rats were administered during 21 days once a day with methyprednisolone (5 mg/kg i.p.) plus GF (0.001, 0.01, 0.1 mg/kg), NF (1 and 10 mg/kg) or vehicle (PCB; i.p). Twenty-four hours after the last administrations, they were euthanatized. A complete necropsy was performed and main organs weighted.

[6] = biological target: GS (Mus musculus, UniProt P15105); format: in vivo, BALB/c mice; set-up: from tissue; host or cells: mouse brain (whole brain, cortex, hippocampus, thalamus/hypothalamus); details: 24 h after single i.p., NF 10 and 100 mg/kg
GS (Mus musculus, UniProt P15105), sequence (P15105 2-373 limits assumed): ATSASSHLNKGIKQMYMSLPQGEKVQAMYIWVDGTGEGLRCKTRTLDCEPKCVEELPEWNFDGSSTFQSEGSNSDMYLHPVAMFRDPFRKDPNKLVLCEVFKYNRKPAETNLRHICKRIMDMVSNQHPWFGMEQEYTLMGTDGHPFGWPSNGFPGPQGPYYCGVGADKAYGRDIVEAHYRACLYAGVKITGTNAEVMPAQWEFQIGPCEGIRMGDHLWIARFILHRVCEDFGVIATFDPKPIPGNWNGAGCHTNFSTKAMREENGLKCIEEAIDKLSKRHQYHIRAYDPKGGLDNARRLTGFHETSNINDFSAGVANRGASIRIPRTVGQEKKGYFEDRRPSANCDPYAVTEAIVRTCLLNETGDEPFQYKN
Protocol: (§1) Cortex, hippocampi and thalamus/hypothalamus were carefully isolated immediately after euthanasia. Membranes were prepared and the activity of GS determined in these different structures (as mentioned above for the whole brain).

[7] = biological target: GS (Rattus norvegicus, UniProt P09606); format: in vivo, Wistar rats; set-up: from tissue; host or cells: Wistar rat brain homogenate or membranes; in A19 also liver and lungs
GS (Rattus norvegicus, UniProt P09606), sequence (P09606 2-373 limits assumed): as the sequence (P09606 2-373 limits assumed) above
Protocol: as §1

Row | interaction between NF and purified pig GS in agarose (0.1%) gel ([2]; Commassie blue) | precipitation of GS protein by different concentration of NF ([2]; NF 6.3e^−19 to 4.8e^−7 M, GS 3 mg/ml) | precipitated proteins subjected to rabbit anti-GR antibodies ([2]; purified pig GS and whole rat brain homogenates) | presence of G-actin in the isolated band [3] | presence of glutamine synthetase in the isolated band [3] | “high” concentration range inhibiting GS activity [4] | GS activity in the hippocampus [6] | GS activity in the thalamus/hypothalamus ([6]; GF 1 mg/kg) | GS activity in the cortex ([7]; NF 1 and 10 mg/kg i.p.) | GS activity in the hippocampus ([7]; NF 1 and 10 mg/kg i.p.) | GS activity in the thalamus/hypothalamus ([7]; NF 1 and 10 mg/kg i.p., twenty four hours after administration) | dose of maximum effect on hippocampus GS activity ([7]; rat, in vivo) | SMILES | Ki [1] | identity of the precipitated protein (dotblot) ([2]; anti-GS antibodies) | adrenal weight ([5]; GF 0.001, 0.01, 0.1 mg/kg, NF 1 and 10 mg/kg, methyprednisolone 5 mg/kg i.p., 21 days, versus PCB) | dose relation of the effect on adrenal weight ([5]; rat, in vivo)
1 |  |  |  |  |  |  |  |  |  |  |  |  | NC1(C(=O)O)COC(P(=O)(O)O)C1 (centres unmarked) [Tetrahydrofuran phosphinothricin, 3-Amino-5-phosphono-tetrahydro-furan-3-carboxylic acid] | 5 µM |  |  | 
2 | revealed a clear precipitated protein | precipitated dose dependently GS protein | did not reveal any protein | 70% | 30% | 10^−12 to 10^−14 M | trend to an increase of GS activity | decreased | No significant treatment-effect | increased GS activity | dose-dependently decreased GS activity | 1 mg/kg | NC(=O)NN=C1C=Cc2ccccc2C1=O [NF, 1-oxo, 2 naphtyl semicarbazone] |  | revealed specifically glutamine synthetase | higher | dose-dependent effect
3 |  |  |  |  |  |  |  |  |  |  |  |  | NC1(C(=O)O)CCC(P(=O)(O)O)C1 (centres unmarked) [Cyclopentane phosphinothricin, 1-Amino-3-phosphono-cyclopentane-carboxylic acid] | 0.47 µM |  |  | 
